Data: US12187703B2, “Crystalline forms of N-(3-(2-(2-hydroxyethoxy)-6-morpholinopyridin-4-yl)-4-methvlphenyl)-2 (trifluoromethyl)isonicotinamide as Raf inhibitors for the treatment of cancer” (NOVARTIS AG, priority 2019, dated 2025)
≈ marks a conversion by molar mass, not a printed value. Like-named read-outs stand apart in the source and are kept apart here. Blank lines part the entries; values can stand above or below the compound they belong to.

Experiments:
Assay type in all cases: physicochemical
[1] = Hygroscopicity, storage and solubility conclusions; conditions: for Hygroscopicity: non-hygroscopic defined as water uptake at most 2 w-%, 0 to 95% RH, 25° C. (GMS/DVS)
Source text: The term “non-hygroscopic” as used herein refers to a compound showing a water uptake of at most 2 w-% in the sorption cycle when measured with GMS (or DVS) at a relative humidity in the range of from 0 to 95% RH and a temperature of (25.0±0.1) ° C., based on the weight of the compound. Non-hygroscopic is preferably up to 0.2%.

[2] = Solubility at 25° C., 24 hours slurry; conditions: for Final pH: 25° C.; for solubility at 24 h: 25 °C, thermodynamic from solid, read-out: Solubility at 25° C.
Procedure: A sample was weighed in a glass vial and solvent added to make a slurry followed by stirring or shaking at 25° C. for 24 hours. The amount of sample and solvents depends on the target concentration, e.g. if the target concentration is 10 mg/mL, the weight of the sample should be 10 mg and the amount of solvent volume should be 1 mL. The solid and liquid are separated by centrifugation at 13000 rpm for 2 minutes with 0.2 μm membrane. The filtrate is then used for the solubility test after appropriate dilution. The diluent is from the UPLC method. The solids obtained after equilibration were analyzed by XRPD after being dried at 40° C. under vacuum for 2 hours. DSC/TGA analysis was conducted for selected samples.

[3] = Particle size distribution by Fraunhofer light diffraction; conditions: pilot manufacture batch, kilogram scale; listed as Modification A
Procedure: (§1) Pilot manufacture batches producing Modification HA and Form A on kilogram scale were compared for their respective bulk powder properties. The particle size distribution (PSD) was determined according to the corresponding method for release. Other measurements were performed using technical methods known in the art or as described herein.
A few drops of the dispersing aid were added to an appropriate amount of test substance. The mixture was mixed intensively, e.g. on a vortex mixer, in order to wet the substance thoroughly and to form a smooth and homogeneous paste. The resultant paste was diluted with the dispersion liquid to a final volume of 3-6 ml and the dispersion mixed again. The cumulative volume distribution was determined using a laser light diffraction instrument as stated above. The parameters could be adjusted accordingly so that the test dispersion is representative, homogeneous and well dispersed.
Particle sizes were determined at the undersize values of 10%, 50% and 90% (×10, ×50, ×90), and additional values in question, from the cumulative volume distribution.

[4] = Behaviour under compression, grinding and granulation with water
[5] = Water activity experiments of Form A
Procedure: About 100 mg of Form A is equilibrated with 0.5 mL solvent by stirring at RT or 50° C. The slurries are filtered. The wet cake is investigated by XRPD.

[6] = Bulk density and flowability with ring shear tester; conditions: listed as Modification A
Procedure: as §1

[7] = Stability testing, solid state bulk (UPLC, color, XRPD, TGA)
Procedure: (§2) X-ray powder diffraction (XRPD) analysis of all polymorph forms was performed using a Bruker D8 Discover x-ray diffractometer with XYZ stage. Measurements were taken at about 40 kV and 1 mA under the following conditions:
(§3) Crystalline Monohydrate Form HA was analysed by thermogravimetric analysis (TGA) using a Discovery Thermogravimetric Analysis Calorimeter from TA instruments under the following conditions (see Table 6).
(§4) No notable change in chemical purity, nor change in XRPD, nor change in TGA, was observed.

[8] = as above; design: key: A: No change of color; conditions: Solid state
Procedure: as §2, §3, §4

[9] = as above; design: key: A: No change of color; B: Slight discoloration
Procedure: as §2, §3, §4

[10] = Humidity exposure of amorphous form; conditions: ambient humidity or 92% RH
[11] = 50° C., water 0%/IPA 100%, aw 0.000
[12] = 50° C., water 1%/IPA 99%, aw 0.124
[13] = 50° C., water 3.2%/IPA 96.8%, aw 0.324
[14] = 50° C., water 100%/IPA 0%, aw 1.000
[15] = RT, water 0%/IPA 100%, aw 0.000
[16] = RT, water 100%/IPA 0%, aw 1.000
[17] = Solid state, 1 week 50° C., closed container
[18] = Solid state, 1 week 50° C./75% r.h.
[19] = Solid state, 1 week 80° C., closed container
[20] = Solid state, 1 week 80° C./75% r.h.
[21] = Xenon light (approx. 1200 kLuxh)

- Relative solubility of forms [1]: more soluble than Form HA
- Solubility, overall rating [1]: adequate solubility
- Stability when stored in bulk quantities [1]: stable when stored in bulk quantities
- Hygroscopicity [1]: non-hygroscopic
- Solubility at 25° C. ([2]; 0.01N HCl, pH 2.0): 1.4 µg/mL (≈ 2.79 µM)
- Final pH ([2]; 0.01N HCl, pH 2.0): 2.16
- Solubility at 25° C. ([2]; 0.1N HCl, pH 1.0): 292.9 µg/mL (≈ 583 µM)
- Final pH ([2]; 0.1N HCl, pH 1.0): 1.07
- Final pH ([2]; Acetate buffer, pH 4.7): 4.82
- Final pH ([2]; Borate buffer, pH 9.0): 9.01
- solubility at 24 h ([2]; FaSSIF, pH 6.5, fassif, FaSSIF, pH 6.5): 0.8 µg/mL (≈ 1.59 µM)
- Final pH ([2]; FaSSIF, pH 6.5): 6.45
- Solubility at 25° C. ([2]; FeSSIF, pH 5.8): 41.3 µg/mL (≈ 82.2 µM)
- Final pH ([2]; FeSSIF, pH 5.8): 5.82
- solubility at 24 h ([2]; N,N-dimethylformamide, organic solvent or mixture, N,N-Dimethylformamide): > 10000 µg/mL
- Final pH ([2]; Phosphate buffer, pH 6.8): 6.74
- Solubility at 25° C. ([2]; SGF, pH 2.0): 22 µg/mL (≈ 43.8 µM)
- Final pH ([2]; SGF, pH 2.0): 2.05
- Final pH ([2]; Water): 8.93
- solubility at 24 h ([2]; acetate buffer, pH 4.7, aqueous buffer, Acetate buffer, pH 4.7): < 0.3 µg/mL
- solubility at 24 h ([2]; acetonitrile, organic solvent or mixture, Acetonitrile): > 10000 µg/mL
- solubility at 24 h ([2]; borate buffer, pH 9, aqueous buffer, Borate buffer, pH 9.0): < 0.3 µg/mL
- solubility at 24 h ([2]; dichloromethane, organic solvent or mixture, Dichloromethane): > 10000 µg/mL
- solubility at 24 h ([2]; ethanol, organic solvent or mixture, Ethanol): > 10000 µg/mL
- solubility at 24 h ([2]; ethyl acetate, organic solvent or mixture, Ethyl acetate): > 10000 µg/mL
- solubility at 24 h ([2]; phosphate buffer, pH 6.8, aqueous buffer, Phosphate buffer, pH 6.8): < 0.3 µg/mL
- solubility at 24 h ([2]; water, water, Water): < 0.3 µg/mL
- Diameter X of PSD measured during release, X50 [3]: X50: 8 μm
- Diameter X of PSD measured during release, X90 [3]: X90: 44 μm
- Physical form upon granulation with water or compression [4]: remains unchanged
- Crystallinity when compressed ([4]; pressures of 3 to 6 MPa): slight decrease in crystallinity
- After 1 d equilibration (wet cake XRPD) [5, 11]: Form A
- After 5 d equilibration (wet cake XRPD) [5, 11]: Form A
- After 1 d equilibration (wet cake XRPD) [5, 12]: Form A
- After 5 d equilibration (wet cake XRPD) [5, 12]: Form A
- After 1 d equilibration (wet cake XRPD) [5, 13]: Form A
- After 5 d equilibration (wet cake XRPD) [5, 13]: Form A
- After 1 d equilibration (wet cake XRPD) [5, 14]: Form A
- After 5 d equilibration (wet cake XRPD) [5, 14]: Form A
- After 1 d equilibration (wet cake XRPD) [5, 15]: Form A
- After 5 d equilibration (wet cake XRPD) [5, 15]: Form A
- After 1 d equilibration (wet cake XRPD) ([5]; RT, water 1%/IPA 99%, aw 0.120): Form A
- After 5 d equilibration (wet cake XRPD) ([5]; RT, water 1%/IPA 99%, aw 0.120): Form A
- After 1 d equilibration (wet cake XRPD) ([5]; RT, water 3.2%/IPA 96.8%, aw 0.316): Form A + HA
- After 1 d equilibration (wet cake XRPD) [5, 16]: Form A
- After 5 d equilibration (wet cake XRPD) [5, 16]: Form A
- Time for complete conversion of Form A to Monohydrate HA ([5]; water activity of 0.3, room temperature): 5 days
- Bulk flowability with ring shear tester, rating in words ([6]; under 1250 Pa normal stress): “very cohesive”
- Technical measurement of bulk flowability with ring shear tester ([6]; under 1250 Pa normal stress): 1.45
- Technical measurement of bulk density with ring shear tester ([6]; under no consolidation stress): 71 kg/m^3
SMILES: Cc1ccc(NC(=O)c2ccnc(C(F)(F)F)c2)cc1-c1cc(OCCO)nc(N2CCOCC2)c1 [Form A, N-(3-(2-(2-hydroxyethoxy)-6-morpholinopyridin-4-yl)-4-methylphenyl)-2-(trifluoromethyl)isonicotinamide]

- Bulk (XRPD) [7, 17]: no change
- DP %, Bulk (UPLC) [7, 17]: 2.46%
- Bulk (XRPD) [7, 18]: no change
- DP %, Bulk (UPLC) [7, 18]: 2.49%
- Bulk (XRPD) [7, 19]: no change
- DP %, Bulk (UPLC) [7, 19]: 2.12%
- Bulk (XRPD) [7, 20]: changed
- DP %, Bulk (UPLC) [7, 20]: 3.32%
- Bulk (XRPD) [7, 21]: no change
- DP %, Bulk (HPLC) [7, 21]: 3.66%
- Stability upon exposure to elevated temperature or humidity ([7]; degradation products and physical form): relatively stable
- Relative solubility of forms [1]: more soluble than Form A
- Solubility, overall rating [1]: adequate solubility
- Stability when stored in bulk quantities [1]: stable when stored in bulk quantities
- Hygroscopicity [1]: non-hygroscopic
- Solubility at 25° C. ([2]; 0.01N HCl, pH 2.0): 141.2 µg/mL (≈ 281 µM)
- Final pH ([2]; 0.01N HCl, pH 2.0): 2.04
- Solubility at 25° C. ([2]; 0.1N HCl, pH 1.0): 1026.4 µg/mL (≈ 2040 µM)
- Final pH ([2]; 0.1N HCl, pH 1.0): 1.02
- Solubility at 25° C. ([2]; Acetate buffer, pH 4.7): < 0.2 µg/mL
- Final pH ([2]; Acetate buffer, pH 4.7): 4.78
- Solubility at 25° C. ([2]; Acetonitrile): >10000 µg/mL
- Solubility at 25° C. ([2]; Borate buffer, pH 9.0): < 0.2 µg/mL
- Final pH ([2]; Borate buffer, pH 9.0): 8.97
- Solubility at 25° C. ([2]; Dichloromethane): >10000 µg/mL
- Solubility at 25° C. ([2]; Ethanol): >10000 µg/mL
- Solubility at 25° C. ([2]; Ethyl acetate): >10000 µg/mL
- Solubility at 25° C. ([2]; FaSSIF, pH 6.5): 1.4 µg/mL (≈ 2.79 µM)
- Final pH ([2]; FaSSIF, pH 6.5): 6.91
- Solubility at 25° C. ([2]; FeSSIF, pH 5.8): 137 µg/mL (≈ 273 µM)
- Final pH ([2]; FeSSIF, pH 5.8): 6.08
- Solubility at 25° C. ([2]; N,N-Dimethylformamide): >10000 µg/mL
- Solubility at 25° C. ([2]; Phosphate buffer, pH 6.8): < 0.2 µg/mL
- Final pH ([2]; Phosphate buffer, pH 6.8): 6.75
- Solubility at 25° C. ([2]; SGF, pH 2.0): 2.1 µg/mL (≈ 4.18 µM)
- Final pH ([2]; SGF, pH 2.0): 2.02
- Solubility at 25° C. ([2]; Water): < 0.2 µg/mL
- Final pH ([2]; Water): 8.11
- solubility at 24 h ([2]; heptane, organic solvent or mixture, Heptane): < 0.2 µg/mL
- XRPD pattern upon grinding, compression and granulation with water [4]: did not change
- Color (CL) ([8]; 1 week 50° C., closed container): A
- Color (CL) ([8]; 1 week 50° C./75% r.h.): A
- Color (CL) ([8]; 1 week 80° C., closed container): A
- Color (CL) [9, 20]: B
- Color (CL) [9, 21]: B
SMILES: Cc1ccc(NC(=O)c2ccnc(C(F)(F)F)c2)cc1-c1cc(OCCO)nc(N2CCOCC2)c1 [Form B, N-(3-(2-(2-hydroxyethoxy)-6-morpholinopyridin-4-yl)-4-methylphenyl)-2-(trifluoromethyl)isonicotinamide]

SMILES: Cc1ccc(NC(=O)c2ccnc(C(F)(F)F)c2)cc1-c1cc(OCCO)nc(N2CCOCC2)c1 [amorphous form, N-(3-(2-(2-hydroxyethoxy)-6-morpholinopyridin-4-yl)-4-methylphenyl)-2-(trifluoromethyl)isonicotinamide]
- Physical form stability under humidity [10]: remains stable and does not convert to HA
